Source: patent US20080009418A1, “Selective Inhibitors” (Alchemia LTD., priority 2004, published 2008)

Experiments:
[1] = target: T1, Human neurokinin (NK1) (Homo sapiens, UniProt P25103); experiment: Radioligand binding, human neurokinin NK1 membranes, filtration, [125I]-Substance P; conditions: compound at 10 μM, [125I]-Substance P
T1 construct: purchased Perkin Elmer Biosignal
Procedure, shortened: (§1)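 Percent inhibition of radioligand binding measured on recombinant human membranes: NK1 with [125I]-Substance P, KOP with [3H]-Diprenorphine. Incubation 1 h at room temperature, then harvest onto 0.3% PEI-soaked filters, cold Tris-HCl pH 7.4 washes and scintillation counting; non-specific binding from reference ligand wells.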

[2] = target: T2, Human Melanocortin (MC3) (Homo sapiens, UniProt P41968); experiment: Radioligand binding, human melanocortin MC3 membranes, FlashPlate, [125I]-NDP-αMSH; conditions: compound at 10 μM, [125I]-NDP-αMSH
T2 construct: purchased Perkin Elmer Biosignal
T2 sequence (P41968 whole entry): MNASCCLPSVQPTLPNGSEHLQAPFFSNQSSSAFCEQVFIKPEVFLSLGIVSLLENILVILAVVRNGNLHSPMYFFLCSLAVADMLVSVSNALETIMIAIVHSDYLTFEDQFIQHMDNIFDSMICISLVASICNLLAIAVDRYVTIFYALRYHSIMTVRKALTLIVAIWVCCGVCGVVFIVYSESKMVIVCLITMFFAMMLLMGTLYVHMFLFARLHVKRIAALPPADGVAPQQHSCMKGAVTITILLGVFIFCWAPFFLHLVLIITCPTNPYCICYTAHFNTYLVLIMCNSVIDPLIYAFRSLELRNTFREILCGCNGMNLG
Procedure, shortened: (§2)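 Cloned human receptor membranes were coated onto FlashPlate wells and incubated with radioligand and compound (added from a 0.5 mM DMSO daughter plate) for 1 hour at room temperature in the dark. Scintillation counting gave percent inhibition, with DMSO defining total and reference ligand defining non-specific binding.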

[3] = target: T3, Mouse urotensin (mUR2) (Mus musculus, UniProt Q8VIH9); experiment: Radioligand binding, mouse urotensin mUR2 membranes, FlashPlate, [125I]-Urotensin II; conditions: compound at 10 μM, [125I]-Urotensin II
T3 construct: purchased Perkin Elmer Biosignal
T3 sequence (Q8VIH9 1-385): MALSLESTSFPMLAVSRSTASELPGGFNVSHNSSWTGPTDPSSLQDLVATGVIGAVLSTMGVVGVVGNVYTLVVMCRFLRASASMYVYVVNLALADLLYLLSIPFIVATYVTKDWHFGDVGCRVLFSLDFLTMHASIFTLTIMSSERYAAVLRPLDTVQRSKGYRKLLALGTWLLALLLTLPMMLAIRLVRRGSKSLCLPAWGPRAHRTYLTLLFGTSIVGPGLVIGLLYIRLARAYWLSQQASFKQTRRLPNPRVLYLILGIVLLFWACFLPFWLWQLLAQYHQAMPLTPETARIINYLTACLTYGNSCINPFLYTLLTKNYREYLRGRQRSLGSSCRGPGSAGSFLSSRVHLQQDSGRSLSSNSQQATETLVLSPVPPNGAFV
Procedure, shortened: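 Cloned mouse urotensin (mUR2) receptor membranes from Perkin Elmer Biosignal were immobilized in FlashPlate microplates using a proprietary coating. Each well got 19.5 μl buffer, then 0.5 μl of DMSO, reference ligand, or compound. Adding 5 μl of [125I]-Urotensin II, diluted to 5× final concentration in binding buffer, started binding. Plates were sealed with TopSeal-A and incubated 1 hour at room temperature in the dark. Wells were counted for 30 seconds each on a TopCount after a 60-second delay, and percentage inhibition was calculated.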

[4] = target: T4, Human Melanocortin (MC4) (Homo sapiens, UniProt P32245); experiment: Radioligand binding, human melanocortin MC4 membranes, FlashPlate, [125I]-NDP-αMSH; conditions: compound at 10 μM, [125I]-NDP-αMSH
T4 construct: purchased Perkin Elmer Biosignal
T4 sequence (P32245 whole entry): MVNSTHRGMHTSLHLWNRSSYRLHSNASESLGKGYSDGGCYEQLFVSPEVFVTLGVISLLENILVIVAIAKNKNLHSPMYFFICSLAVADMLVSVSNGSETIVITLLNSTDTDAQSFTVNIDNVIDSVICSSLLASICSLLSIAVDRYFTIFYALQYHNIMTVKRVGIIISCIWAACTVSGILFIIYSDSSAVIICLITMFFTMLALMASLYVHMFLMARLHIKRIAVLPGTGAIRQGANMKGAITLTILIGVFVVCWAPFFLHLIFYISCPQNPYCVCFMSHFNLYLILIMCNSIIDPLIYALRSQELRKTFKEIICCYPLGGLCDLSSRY
Procedure, shortened: as §2

[5] = target: T5, Human melanin-concentrating hormone (MCH1) (Homo sapiens, UniProt Q99705); experiment: Radioligand binding, human melanin-concentrating hormone MCH1 membranes, FlashPlate, [125I]-S36057; conditions: compound at 10 μM
T5 construct: purchased Perkin Elmer Biosignal
T5 sequence (Q99705 whole entry): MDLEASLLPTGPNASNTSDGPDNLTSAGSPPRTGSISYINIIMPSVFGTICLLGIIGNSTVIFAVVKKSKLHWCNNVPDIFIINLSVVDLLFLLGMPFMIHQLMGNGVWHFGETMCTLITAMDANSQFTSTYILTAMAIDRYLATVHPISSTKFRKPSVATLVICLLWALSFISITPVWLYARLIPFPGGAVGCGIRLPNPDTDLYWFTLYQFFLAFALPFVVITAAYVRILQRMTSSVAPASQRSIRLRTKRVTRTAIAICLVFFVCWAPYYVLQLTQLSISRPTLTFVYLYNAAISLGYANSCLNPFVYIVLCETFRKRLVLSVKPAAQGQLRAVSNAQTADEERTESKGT
Procedure, shortened: as §2

[6] = target: T6, Human μ-opioid (MOP) (Homo sapiens, UniProt P35372); experiment: Radioligand binding, human μ-opioid (MOP) membranes, FlashPlate, [3H]-Naloxone; conditions: compound at 10 μM, [3H]-Naloxone
T6 construct: purchased Perkin Elmer Biosignal
T6 sequence (P35372 whole entry): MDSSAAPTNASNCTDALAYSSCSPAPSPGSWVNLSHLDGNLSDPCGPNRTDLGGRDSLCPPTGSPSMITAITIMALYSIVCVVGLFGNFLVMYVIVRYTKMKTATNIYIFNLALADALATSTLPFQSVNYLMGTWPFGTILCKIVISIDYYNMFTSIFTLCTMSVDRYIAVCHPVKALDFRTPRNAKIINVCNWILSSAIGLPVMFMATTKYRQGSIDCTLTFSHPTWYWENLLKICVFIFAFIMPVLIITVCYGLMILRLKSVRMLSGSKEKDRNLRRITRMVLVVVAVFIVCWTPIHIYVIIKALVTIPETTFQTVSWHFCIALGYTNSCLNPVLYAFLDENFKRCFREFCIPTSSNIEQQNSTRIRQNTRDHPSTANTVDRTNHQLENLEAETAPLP
Procedure, shortened: as §2

[7] = target: T7, Human opioid (ORL1) (Homo sapiens, UniProt P41146); experiment: Radioligand binding, human opioid ORL1 membranes, FlashPlate, [125I]-Nociceptin; conditions: compound at 10 μM, [125I]-Nociceptin
T7 construct: purchased Perkin Elmer Biosignal
T7 sequence (P41146 whole entry): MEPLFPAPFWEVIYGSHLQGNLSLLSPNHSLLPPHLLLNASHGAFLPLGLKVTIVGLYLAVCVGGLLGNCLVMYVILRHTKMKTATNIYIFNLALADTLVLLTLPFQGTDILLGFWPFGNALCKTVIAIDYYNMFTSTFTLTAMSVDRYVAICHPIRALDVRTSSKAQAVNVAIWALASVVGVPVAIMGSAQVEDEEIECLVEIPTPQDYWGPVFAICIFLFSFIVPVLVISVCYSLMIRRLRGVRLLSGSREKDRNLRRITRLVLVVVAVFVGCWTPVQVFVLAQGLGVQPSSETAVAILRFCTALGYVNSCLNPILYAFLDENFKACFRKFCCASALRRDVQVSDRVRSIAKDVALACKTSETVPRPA
Procedure, shortened: as §2

[8] = target: T8, Human δ-opioid (DOP) (Homo sapiens, UniProt P41143); experiment: Radioligand binding, human δ-opioid (DOP) membranes, FlashPlate, [3H]-Bremazocine; conditions: compound at 10 μM, [3H]-Bremazocine
T8 construct: purchased Perkin Elmer Biosignal
T8 sequence (P41143 whole entry): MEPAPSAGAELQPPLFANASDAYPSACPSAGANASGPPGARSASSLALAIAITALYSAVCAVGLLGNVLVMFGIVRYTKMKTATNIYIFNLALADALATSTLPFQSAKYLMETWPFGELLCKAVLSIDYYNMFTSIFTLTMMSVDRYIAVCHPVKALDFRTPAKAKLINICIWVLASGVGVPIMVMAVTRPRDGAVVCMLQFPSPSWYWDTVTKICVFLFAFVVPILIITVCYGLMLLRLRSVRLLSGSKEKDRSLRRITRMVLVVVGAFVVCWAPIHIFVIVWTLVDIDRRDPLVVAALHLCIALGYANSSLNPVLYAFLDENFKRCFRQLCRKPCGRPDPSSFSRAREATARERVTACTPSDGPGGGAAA
Procedure, shortened: as §2

[9] = target: T9, Human κ-Opioid (KOP) (Homo sapiens, UniProt P41145); experiment: Radioligand binding, human κ-opioid (KOP) membranes, filtration, [3H]-Diprenorphine; conditions: compound at 10 μM, [3H]-Diprenorphine
T9 construct: purchased Perkin Elmer Biosignal
T9 sequence (P41145 whole entry): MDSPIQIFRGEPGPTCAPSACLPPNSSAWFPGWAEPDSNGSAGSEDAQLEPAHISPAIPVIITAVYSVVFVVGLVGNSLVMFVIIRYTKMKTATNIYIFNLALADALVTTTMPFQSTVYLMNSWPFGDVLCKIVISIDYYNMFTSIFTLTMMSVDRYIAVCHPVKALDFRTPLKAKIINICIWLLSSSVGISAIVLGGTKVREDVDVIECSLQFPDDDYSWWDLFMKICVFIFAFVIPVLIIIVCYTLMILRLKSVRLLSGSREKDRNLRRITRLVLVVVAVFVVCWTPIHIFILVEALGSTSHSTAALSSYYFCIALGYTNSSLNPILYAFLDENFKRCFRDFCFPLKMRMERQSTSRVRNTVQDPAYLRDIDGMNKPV
Procedure, shortened: as §1

[10] = target: T10, Human neuropeptide Y (NPY-Y1) (Homo sapiens, UniProt P25929); experiment: Radioligand binding, human neuropeptide Y NPY-Y1 membranes, FlashPlate, [125I]-PYY; conditions: compound at 10 μM, [125I]-PYY
T10 construct: purchased Perkin Elmer Biosignal
T10 sequence (P25929 1-384): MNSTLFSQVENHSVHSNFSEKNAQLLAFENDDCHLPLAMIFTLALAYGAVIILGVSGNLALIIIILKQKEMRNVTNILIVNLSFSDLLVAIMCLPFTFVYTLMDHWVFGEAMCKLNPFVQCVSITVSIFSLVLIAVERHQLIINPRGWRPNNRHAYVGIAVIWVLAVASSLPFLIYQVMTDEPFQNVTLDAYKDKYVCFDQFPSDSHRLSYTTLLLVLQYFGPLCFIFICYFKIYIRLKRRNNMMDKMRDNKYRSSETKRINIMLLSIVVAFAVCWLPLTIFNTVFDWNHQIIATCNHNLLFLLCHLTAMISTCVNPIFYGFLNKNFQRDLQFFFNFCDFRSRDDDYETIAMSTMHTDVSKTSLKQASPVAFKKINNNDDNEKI
Procedure, shortened: as §2

[11] = target: T11, Human melanocortin (MC5) (Homo sapiens, UniProt P33032); experiment: Radioligand binding, human melanocortin MC5 membranes, FlashPlate, [125I]-NDP-αMSH; conditions: compound at 10 μM, [125I]-NDP-αMSH
T11 construct: purchased Perkin Elmer Biosignal
T11 sequence (P33032 whole entry): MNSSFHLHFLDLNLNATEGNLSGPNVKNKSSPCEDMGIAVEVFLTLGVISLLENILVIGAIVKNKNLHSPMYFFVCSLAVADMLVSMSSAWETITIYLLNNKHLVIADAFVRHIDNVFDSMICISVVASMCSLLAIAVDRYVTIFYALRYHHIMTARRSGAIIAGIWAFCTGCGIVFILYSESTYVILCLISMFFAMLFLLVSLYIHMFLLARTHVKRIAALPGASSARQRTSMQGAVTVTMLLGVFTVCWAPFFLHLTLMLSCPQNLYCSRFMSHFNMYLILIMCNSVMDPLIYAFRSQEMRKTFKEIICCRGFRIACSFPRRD
Procedure, shortened: as §2

T1 sequence (P25103 whole entry): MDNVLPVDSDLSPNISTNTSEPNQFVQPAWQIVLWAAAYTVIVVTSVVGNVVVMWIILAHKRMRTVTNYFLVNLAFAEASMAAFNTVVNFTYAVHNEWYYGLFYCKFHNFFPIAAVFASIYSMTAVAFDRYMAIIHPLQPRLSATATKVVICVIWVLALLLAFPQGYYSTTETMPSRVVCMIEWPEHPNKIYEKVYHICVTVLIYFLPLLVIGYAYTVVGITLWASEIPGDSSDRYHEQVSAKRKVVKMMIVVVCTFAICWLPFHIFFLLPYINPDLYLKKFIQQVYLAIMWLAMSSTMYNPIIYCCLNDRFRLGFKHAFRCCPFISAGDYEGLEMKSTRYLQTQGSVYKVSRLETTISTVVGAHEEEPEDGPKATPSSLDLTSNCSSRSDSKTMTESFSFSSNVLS

Structure (SMILES): COCC1OC(OCc2ccc(Cl)cc2)C(NC(=O)CCCNC(=N)N)C(OCc2ccc(Cl)cc2)C1O (stereo not shown) [compound 204]
- A8: inhibition of radioligand binding ([1]; filtration): + (“+” indicates greater than 50% inhibition at 10 μM)
- A3: inhibition of radioligand binding ([2]; FlashPlate): + (“+” indicates greater than 50% inhibition at 10 μM)
- A11: inhibition of radioligand binding ([3]; FlashPlate): − (“−” indicates less than 50% inhibition at 10 μM)
- A4: inhibition of radioligand binding ([4]; FlashPlate): + (“+” indicates greater than 50% inhibition at 10 μM)
- A6: inhibition of radioligand binding ([5]; [125I]-S36057, FlashPlate): + (“+” indicates greater than 50% inhibition at 10 μM)
- A7: inhibition of radioligand binding ([6]; FlashPlate): − (“−” indicates less than 50% inhibition at 10 μM)
- A10: inhibition of radioligand binding ([7]; FlashPlate): − (“−” indicates less than 50% inhibition at 10 μM)
- A1: inhibition of radioligand binding ([8]; FlashPlate): − (“−” indicates less than 50% inhibition at 10 μM)
- A2: inhibition of radioligand binding ([9]; filtration): − (“−” indicates less than 50% inhibition at 10 μM)
- A9: inhibition of radioligand binding ([10]; FlashPlate): − (“−” indicates less than 50% inhibition at 10 μM)
- A5: inhibition of radioligand binding ([11]; FlashPlate): + (“+” indicates greater than 50% inhibition at 10 μM)

Structure (SMILES): NCCC(=O)N[C@H]1C(OCc2ccc3ccccc3c2)O[C@H](COCc2ccc3ccccc3c2)[C@@H](O)[C@@H]1OCc1ccc(Cl)cc1 (stereo partly shown) [compound 437]
- A8: inhibition of radioligand binding ([1]; human NK1 membranes): + (“+” indicates greater than 50% inhibition at 10 μM)
- A3: inhibition of radioligand binding ([2]; human MC3 membranes): + (“+” indicates greater than 50% inhibition at 10 μM)
- A11: inhibition of radioligand binding ([3]; mouse mUR2 membranes): − (“−” indicates less than 50% inhibition at 10 μM)
- A4: inhibition of radioligand binding ([4]; human MC4 membranes): + (“+” indicates greater than 50% inhibition at 10 μM)
- A6: inhibition of radioligand binding ([5]; [125I]-S36057, human MCH1 membranes): + (“+” indicates greater than 50% inhibition at 10 μM)
- A7: inhibition of radioligand binding ([6]; human MOP membranes): − (“−” indicates less than 50% inhibition at 10 μM)
- A10: inhibition of radioligand binding ([7]; human ORL1 membranes): − (“−” indicates less than 50% inhibition at 10 μM)
- A1: inhibition of radioligand binding ([8]; human DOP membranes): − (“−” indicates less than 50% inhibition at 10 μM)
- A2: inhibition of radioligand binding ([9]; human KOP membranes): − (“−” indicates less than 50% inhibition at 10 μM)
- A9: inhibition of radioligand binding ([10]; human NPY-Y1 membranes): − (“−” indicates less than 50% inhibition at 10 μM)
- A5: inhibition of radioligand binding ([11]; human MC5 membranes): + (“+” indicates greater than 50% inhibition at 10 μM)
